Laboratory results reported in patent US5556744A, “Methods and compositions for diagnosing and treating certain HIV infected patients” (The Trustees of the University of Pennsylvania, priority 1994, dated 1996).

Key:
[1] = test system: maternal HIV+ sera (antibodies); test: RIA / ELISA binding of maternal HIV+ sera to gp120 and gp41 peptides (Example 3); set-up: species or system human
Outline: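 Peptides were coated at 10 μg/ml in carbonate buffer pH 9.6 and blocked with 1% BSA. Sera at 1:50 and 1:500 were incubated overnight at 4°C and detected with ¹²⁵I anti-human IgG (RIA) or HRP/TMB at OD450 (ELISA). Specific binding was taken as peptide minus no-peptide wells, scored as a ratio to normal human serum.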

[2] = test system: maternal serum samples (antibodies); test: ELISA peptide-binding of maternal sera, expanded peptide collection (Example 5); set-up: species or system human; conditions: Example 5
Outline: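 Maternal sera diluted 1:50 or 1:500 in 1% BSA/PBS/0.05% Tween 20 were tested by ELISA on 10 μg/mL HIV IIIB gp120/gp41 peptides (~18 residues, ≥85% pure). Binding scored positive at experimental/control OD450nm ratio ≥2; HIV-seronegative human sera served as controls.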

[3] = test system: maternal sera (antibodies); test: ELISA peptide-binding of maternal sera (Example 6); set-up: species or system human
Outline: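 Third-trimester maternal sera, from HIV-1 transmitting and non-transmitting mothers, were tested by ELISA against ~16-residue peptides spanning HIV-1 external and transmembrane glycoproteins. Each serum was run with at least 40 peptides, and values are the percentage of sera binding each peptide.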

HIV-1 = conditions: antisera (animals); cited from earlier work

Q: Which “Number of maternal sera binding to peptide” value ([1]; 20 maternal sera) does the source give for CTKAKRRVVQREKA [Peptide 497] here?
A: Sixteen

Q: What about the “Percentage of sera samples demonstrating binding to peptide, non-transmitter” value ([1]; Non-transmitter group, n = 13) of the same sequence?
A: 71%

Q: And the “Binding of maternal HIV+ serum to peptide (sera/NHS ratio)” value (“Binding … (sera/NHS ratio)” for short) ([1]; Serum No. 1, Non-Transmission Group)?
A: - (specific OD450 or cpm of sera sample binding to peptide divided by the specific OD450 or cpm of NHS sample binding to peptide, which value is less than 2)

Q: And the “Binding … (sera/NHS ratio)” value ([1]; Serum No. 2, Non-Transmission Group)?
A: ++ (which value is greater than 3)

Q: And the “Binding … (sera/NHS ratio)” value ([1]; Serum No. 3, Non-Transmission Group)?
A: ++ (which value is greater than 3)

Q: And the “Binding … (sera/NHS ratio)” value ([1]; Serum No. 4, Transmission Group)?
A: ++ (which value is greater than 3)

Q: What about the “Binding … (sera/NHS ratio)” value ([1]; Serum No. 5, Transmission Group) of the same sequence?
A: + (which value is between 2 to 3)

Q: And the “Binding … (sera/NHS ratio)” value ([1]; Serum No. 6, Non-Transmission Group)?
A: + (which value is between 2 to 3)

Q: What about the “Binding … (sera/NHS ratio)” value ([1]; Serum No. 7, Non-Transmission Group) of the same sequence?
A: - (specific OD450 or cpm of sera sample binding to peptide divided by the specific OD450 or cpm of NHS sample binding to peptide, which value is less than 2)

Q: What about the “Binding … (sera/NHS ratio)” value ([1]; Serum No. 8, Non-Transmission Group) of the same sequence?
A: ++ (which value is greater than 3)

Q: And the “Binding … (sera/NHS ratio)” value ([1]; Serum No. 9, Non-Transmission Group)?
A: ++ (which value is greater than 3)

Q: And the “Binding … (sera/NHS ratio)” value ([1]; Serum No. 10, Transmission Group)?
A: + (which value is between 2 to 3)

Q: And the “Binding … (sera/NHS ratio)” value ([1]; Serum No. 11, Non-Transmission Group)?
A: ++ (which value is greater than 3)

Q: And the “Binding … (sera/NHS ratio)” value ([1]; Serum No. 12, Non-Transmission Group)?
A: - (specific OD450 or cpm of sera sample binding to peptide divided by the specific OD450 or cpm of NHS sample binding to peptide, which value is less than 2)

Q: And the “Binding … (sera/NHS ratio)” value ([1]; Serum No. 13, Transmission Group)?
A: - (specific OD450 or cpm of sera sample binding to peptide divided by the specific OD450 or cpm of NHS sample binding to peptide, which value is less than 2)

Q: What about the “Binding … (sera/NHS ratio)” value ([1]; Serum No. 14, Transmission Group) of the same sequence?
A: - (specific OD450 or cpm of sera sample binding to peptide divided by the specific OD450 or cpm of NHS sample binding to peptide, which value is less than 2)

Q: And the “Binding … (sera/NHS ratio)” value ([1]; Serum No. 15, Transmission Group)?
A: ++ (which value is greater than 3)

Q: And the “Binding … (sera/NHS ratio)” value ([1]; Serum No. 16, Non-Transmission Group)?
A: ++ (which value is greater than 3)

Q: And the “Binding … (sera/NHS ratio)” value ([1]; Serum No. 17, Non-Transmission Group)?
A: ++ (which value is greater than 3)

Q: And the “Binding … (sera/NHS ratio)” value ([1]; Serum No. 18, Non-Transmission Group)?
A: + (which value is between 2 to 3)

Q: And the “Binding … (sera/NHS ratio)” value ([1]; Serum No. 19, Transmission Group)?
A: + (which value is between 2 to 3)

Q: What about the “Binding … (sera/NHS ratio)” value ([1]; Serum No. 20, Non-Transmission Group) of the same sequence?
A: + (which value is between 2 to 3)

Q: What about the “Percentage of sera samples demonstrating binding to peptide, transmitter” value ([1]; Transmitter / transmission group, n = 7) of the same sequence?
A: Seventy-seven

Q: And the “Percent of the maternal serum samples that bound to the peptide” value ([1]; all 20 samples)?
A: 80%

Q: What about the “Binding / reactivity of maternal sera to peptide (in words)” value [2] of the same sequence?
A: High reactivity but no difference between the two groups

Q: What about the “Number of Non-Transmitters which bound to peptide” value ([3]; Non-Transmitters, N = 12) of the same sequence?
A: 0

Q: And the “Percent of Non-Transmitters which bound to peptide” value ([3]; Non-Transmitters, N = 12)?
A: 0%

Q: What about the “Number of Transmitters which bound to peptide” value ([3]; Transmitters, N = 4) of the same sequence?
A: 0

Q: And the “Percent of Transmitters which bound to peptide” value ([3]; Transmitters, N = 4)?
A: 0%

Q: And the “Neutralizing activity of antisera generated to the peptide” value (HIV-1)?
A: do not demonstrate neutralizing activity
